Laboratory results as given in paper PMC9504289 (Pharmaceuticals, 2022).
pIC50: −log10 of the molar value.

tested on: mutant spike proteins including D614G, delta (B.1.617.2), and omicron (B.1.1.529) – hACE2; assay type: binding, SARS-CoV-2, human; conditions: read-out: IC50 in all assays with mutant spike proteins

**Q.** How did the pIC50 turn out when `O=C(Nc1ccc(-c2ccc(C(=O)Nc3cccc4cc(S(=O)(=O)O)ccc34)cc2)cc1)c1ccc([N+](=O)[O-])cc1` [DRI-C23041] was run?
**A.** > 5.52

**Q.** How did the pIC50 turn out when `O=C(Nc1ccc(-c2ccc(C(=O)Nc3cccc4c(S(=O)(=O)O)cccc34)cc2)cc1)c1ccc([N+](=O)[O-])cc1` [DRI-C24041] was run?
**A.** > 5.52

**Q.** How did the pIC50 turn out when `O=S(=O)(O)c1ccc(/N=N/c2c(O)ccc3cc(S(=O)(=O)O)ccc23)cc1` [Sunset yellow, sunset yellow FCF] was run?
**A.** < 3.30
